Results taken from ChEMBL document CHEMBL3352260, “Identification and development of biphenyl substituted iminosugars as improved dual glucosylceramide synthase/neutral glucosylceramidase inhibitors” (J Med Chem, 2014).

Experiments:
[1] = biological target: T1, Ceramide glucosyltransferase (Homo sapiens, UniProt Q16739)
T1 sequence (Q16739 whole entry): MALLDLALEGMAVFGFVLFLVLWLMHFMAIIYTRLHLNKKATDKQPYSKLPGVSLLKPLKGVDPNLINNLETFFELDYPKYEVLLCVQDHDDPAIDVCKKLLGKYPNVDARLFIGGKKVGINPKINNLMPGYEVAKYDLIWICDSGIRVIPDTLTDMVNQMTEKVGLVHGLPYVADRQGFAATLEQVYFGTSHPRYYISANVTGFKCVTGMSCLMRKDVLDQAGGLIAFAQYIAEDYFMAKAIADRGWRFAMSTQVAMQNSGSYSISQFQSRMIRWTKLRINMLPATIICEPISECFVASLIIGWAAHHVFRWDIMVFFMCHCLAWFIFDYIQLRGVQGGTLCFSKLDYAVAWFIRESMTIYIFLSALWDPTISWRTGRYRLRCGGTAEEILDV

Beta-glucosidase = biological target: T2, Beta-glucosidase (Homo sapiens, UniProt Q9HCG7)
T2 sequence (Q9HCG7 whole entry): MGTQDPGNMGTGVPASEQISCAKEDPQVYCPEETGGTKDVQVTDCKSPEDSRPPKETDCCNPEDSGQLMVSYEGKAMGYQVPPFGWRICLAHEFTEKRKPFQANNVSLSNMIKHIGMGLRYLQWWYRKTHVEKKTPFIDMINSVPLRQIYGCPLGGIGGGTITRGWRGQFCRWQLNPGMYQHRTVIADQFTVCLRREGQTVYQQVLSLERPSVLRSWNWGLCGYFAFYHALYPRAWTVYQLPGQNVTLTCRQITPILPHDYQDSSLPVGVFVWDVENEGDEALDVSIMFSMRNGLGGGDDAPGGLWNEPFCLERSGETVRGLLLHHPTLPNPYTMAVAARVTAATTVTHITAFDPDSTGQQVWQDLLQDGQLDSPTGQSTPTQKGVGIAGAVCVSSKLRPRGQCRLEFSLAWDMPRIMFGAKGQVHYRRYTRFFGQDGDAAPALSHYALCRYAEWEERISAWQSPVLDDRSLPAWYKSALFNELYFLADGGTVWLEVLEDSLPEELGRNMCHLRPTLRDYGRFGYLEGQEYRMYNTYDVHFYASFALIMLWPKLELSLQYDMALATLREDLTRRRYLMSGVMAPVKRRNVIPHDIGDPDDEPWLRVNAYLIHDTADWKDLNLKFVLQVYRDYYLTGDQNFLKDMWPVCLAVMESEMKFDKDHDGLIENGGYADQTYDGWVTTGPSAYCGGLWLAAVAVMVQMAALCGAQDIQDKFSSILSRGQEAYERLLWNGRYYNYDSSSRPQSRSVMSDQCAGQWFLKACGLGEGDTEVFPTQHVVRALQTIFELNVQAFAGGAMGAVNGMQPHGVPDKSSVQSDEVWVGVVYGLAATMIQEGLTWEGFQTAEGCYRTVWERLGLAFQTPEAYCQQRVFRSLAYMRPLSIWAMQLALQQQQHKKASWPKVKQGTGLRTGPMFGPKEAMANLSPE

[2] = biological target: T3, Lysosomal acid glucosylceramidase (Homo sapiens, UniProt P04062)
T3 sequence (P04062 whole entry): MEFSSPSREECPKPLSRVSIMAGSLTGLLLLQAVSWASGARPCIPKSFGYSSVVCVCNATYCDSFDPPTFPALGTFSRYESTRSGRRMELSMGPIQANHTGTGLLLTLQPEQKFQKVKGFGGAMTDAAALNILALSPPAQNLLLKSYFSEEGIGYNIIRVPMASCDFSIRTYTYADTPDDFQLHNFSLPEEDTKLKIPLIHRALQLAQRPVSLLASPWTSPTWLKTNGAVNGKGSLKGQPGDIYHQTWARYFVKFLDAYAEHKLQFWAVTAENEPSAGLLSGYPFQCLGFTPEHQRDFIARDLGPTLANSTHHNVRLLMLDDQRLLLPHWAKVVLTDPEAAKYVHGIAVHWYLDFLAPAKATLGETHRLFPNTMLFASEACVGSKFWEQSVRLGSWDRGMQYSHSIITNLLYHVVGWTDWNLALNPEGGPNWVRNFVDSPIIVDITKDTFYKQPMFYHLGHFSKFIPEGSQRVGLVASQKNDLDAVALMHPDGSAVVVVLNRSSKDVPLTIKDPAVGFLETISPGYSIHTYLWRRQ

[3] = biological target: Lactase/phlorizin hydrolase (Homo sapiens, UniProt P09848); assay: Inhibition of intestinal lactase (unknown origin)
[4] = biological target: Sucrase-isomaltase, intestinal (Homo sapiens, UniProt P14410); assay: Inhibition of intestinal sucrase (unknown origin)
Sequence of Sucrase-isomaltase, intestinal (P14410 2-1007 limits assumed): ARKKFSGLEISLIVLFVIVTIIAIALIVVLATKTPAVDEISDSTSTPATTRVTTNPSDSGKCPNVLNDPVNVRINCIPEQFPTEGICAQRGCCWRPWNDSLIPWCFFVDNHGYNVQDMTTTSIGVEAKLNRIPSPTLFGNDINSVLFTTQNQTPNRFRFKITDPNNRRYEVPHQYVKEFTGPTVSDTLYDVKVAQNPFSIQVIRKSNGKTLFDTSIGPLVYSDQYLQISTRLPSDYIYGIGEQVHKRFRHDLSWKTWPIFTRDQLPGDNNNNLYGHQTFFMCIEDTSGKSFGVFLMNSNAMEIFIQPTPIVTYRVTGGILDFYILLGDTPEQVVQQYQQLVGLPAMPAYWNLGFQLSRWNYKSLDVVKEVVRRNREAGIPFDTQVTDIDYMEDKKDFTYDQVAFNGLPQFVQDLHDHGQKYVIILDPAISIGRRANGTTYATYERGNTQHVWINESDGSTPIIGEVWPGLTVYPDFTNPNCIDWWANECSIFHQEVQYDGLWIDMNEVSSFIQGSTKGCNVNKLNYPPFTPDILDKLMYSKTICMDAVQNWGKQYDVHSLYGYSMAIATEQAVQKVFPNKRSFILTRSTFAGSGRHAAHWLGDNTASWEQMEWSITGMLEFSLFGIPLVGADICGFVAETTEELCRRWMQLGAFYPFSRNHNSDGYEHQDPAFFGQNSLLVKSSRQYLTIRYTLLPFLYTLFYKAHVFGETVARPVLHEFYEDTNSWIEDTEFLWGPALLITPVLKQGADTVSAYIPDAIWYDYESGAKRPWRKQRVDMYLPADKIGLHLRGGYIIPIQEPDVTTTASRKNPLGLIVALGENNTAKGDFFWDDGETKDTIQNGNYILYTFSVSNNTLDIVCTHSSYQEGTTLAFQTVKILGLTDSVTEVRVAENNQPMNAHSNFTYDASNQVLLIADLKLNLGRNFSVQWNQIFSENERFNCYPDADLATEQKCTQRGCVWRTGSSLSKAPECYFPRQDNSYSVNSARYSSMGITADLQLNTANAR
Sequence of Sucrase-isomaltase, intestinal (P14410 1008-1827 limits assumed): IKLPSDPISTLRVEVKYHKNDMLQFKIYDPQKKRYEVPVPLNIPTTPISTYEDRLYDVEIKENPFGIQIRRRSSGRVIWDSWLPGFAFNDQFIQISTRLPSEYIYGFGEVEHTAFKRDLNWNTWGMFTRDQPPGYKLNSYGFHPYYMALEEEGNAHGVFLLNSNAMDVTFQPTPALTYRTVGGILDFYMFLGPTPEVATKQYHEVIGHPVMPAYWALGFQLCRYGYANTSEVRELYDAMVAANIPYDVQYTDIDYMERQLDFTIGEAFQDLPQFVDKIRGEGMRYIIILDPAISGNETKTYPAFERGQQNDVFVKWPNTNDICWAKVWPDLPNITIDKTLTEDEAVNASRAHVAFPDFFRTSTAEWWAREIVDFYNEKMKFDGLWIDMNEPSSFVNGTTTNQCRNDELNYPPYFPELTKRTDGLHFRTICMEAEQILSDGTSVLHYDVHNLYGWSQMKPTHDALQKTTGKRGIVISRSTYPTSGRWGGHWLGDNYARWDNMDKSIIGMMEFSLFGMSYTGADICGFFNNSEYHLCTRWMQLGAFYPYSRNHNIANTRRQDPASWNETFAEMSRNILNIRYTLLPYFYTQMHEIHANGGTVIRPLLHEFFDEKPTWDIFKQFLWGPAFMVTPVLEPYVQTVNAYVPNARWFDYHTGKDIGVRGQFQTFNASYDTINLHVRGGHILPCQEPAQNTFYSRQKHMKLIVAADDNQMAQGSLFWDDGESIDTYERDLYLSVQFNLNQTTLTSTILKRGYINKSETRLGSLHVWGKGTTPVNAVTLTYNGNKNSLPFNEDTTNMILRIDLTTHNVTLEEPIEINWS

Maltase-glucoamylase = Maltase-glucoamylase (Homo sapiens, UniProt O43451); assay: Inhibition of intestinal maltase (unknown origin)
Sequence of Maltase-glucoamylase (O43451 whole entry): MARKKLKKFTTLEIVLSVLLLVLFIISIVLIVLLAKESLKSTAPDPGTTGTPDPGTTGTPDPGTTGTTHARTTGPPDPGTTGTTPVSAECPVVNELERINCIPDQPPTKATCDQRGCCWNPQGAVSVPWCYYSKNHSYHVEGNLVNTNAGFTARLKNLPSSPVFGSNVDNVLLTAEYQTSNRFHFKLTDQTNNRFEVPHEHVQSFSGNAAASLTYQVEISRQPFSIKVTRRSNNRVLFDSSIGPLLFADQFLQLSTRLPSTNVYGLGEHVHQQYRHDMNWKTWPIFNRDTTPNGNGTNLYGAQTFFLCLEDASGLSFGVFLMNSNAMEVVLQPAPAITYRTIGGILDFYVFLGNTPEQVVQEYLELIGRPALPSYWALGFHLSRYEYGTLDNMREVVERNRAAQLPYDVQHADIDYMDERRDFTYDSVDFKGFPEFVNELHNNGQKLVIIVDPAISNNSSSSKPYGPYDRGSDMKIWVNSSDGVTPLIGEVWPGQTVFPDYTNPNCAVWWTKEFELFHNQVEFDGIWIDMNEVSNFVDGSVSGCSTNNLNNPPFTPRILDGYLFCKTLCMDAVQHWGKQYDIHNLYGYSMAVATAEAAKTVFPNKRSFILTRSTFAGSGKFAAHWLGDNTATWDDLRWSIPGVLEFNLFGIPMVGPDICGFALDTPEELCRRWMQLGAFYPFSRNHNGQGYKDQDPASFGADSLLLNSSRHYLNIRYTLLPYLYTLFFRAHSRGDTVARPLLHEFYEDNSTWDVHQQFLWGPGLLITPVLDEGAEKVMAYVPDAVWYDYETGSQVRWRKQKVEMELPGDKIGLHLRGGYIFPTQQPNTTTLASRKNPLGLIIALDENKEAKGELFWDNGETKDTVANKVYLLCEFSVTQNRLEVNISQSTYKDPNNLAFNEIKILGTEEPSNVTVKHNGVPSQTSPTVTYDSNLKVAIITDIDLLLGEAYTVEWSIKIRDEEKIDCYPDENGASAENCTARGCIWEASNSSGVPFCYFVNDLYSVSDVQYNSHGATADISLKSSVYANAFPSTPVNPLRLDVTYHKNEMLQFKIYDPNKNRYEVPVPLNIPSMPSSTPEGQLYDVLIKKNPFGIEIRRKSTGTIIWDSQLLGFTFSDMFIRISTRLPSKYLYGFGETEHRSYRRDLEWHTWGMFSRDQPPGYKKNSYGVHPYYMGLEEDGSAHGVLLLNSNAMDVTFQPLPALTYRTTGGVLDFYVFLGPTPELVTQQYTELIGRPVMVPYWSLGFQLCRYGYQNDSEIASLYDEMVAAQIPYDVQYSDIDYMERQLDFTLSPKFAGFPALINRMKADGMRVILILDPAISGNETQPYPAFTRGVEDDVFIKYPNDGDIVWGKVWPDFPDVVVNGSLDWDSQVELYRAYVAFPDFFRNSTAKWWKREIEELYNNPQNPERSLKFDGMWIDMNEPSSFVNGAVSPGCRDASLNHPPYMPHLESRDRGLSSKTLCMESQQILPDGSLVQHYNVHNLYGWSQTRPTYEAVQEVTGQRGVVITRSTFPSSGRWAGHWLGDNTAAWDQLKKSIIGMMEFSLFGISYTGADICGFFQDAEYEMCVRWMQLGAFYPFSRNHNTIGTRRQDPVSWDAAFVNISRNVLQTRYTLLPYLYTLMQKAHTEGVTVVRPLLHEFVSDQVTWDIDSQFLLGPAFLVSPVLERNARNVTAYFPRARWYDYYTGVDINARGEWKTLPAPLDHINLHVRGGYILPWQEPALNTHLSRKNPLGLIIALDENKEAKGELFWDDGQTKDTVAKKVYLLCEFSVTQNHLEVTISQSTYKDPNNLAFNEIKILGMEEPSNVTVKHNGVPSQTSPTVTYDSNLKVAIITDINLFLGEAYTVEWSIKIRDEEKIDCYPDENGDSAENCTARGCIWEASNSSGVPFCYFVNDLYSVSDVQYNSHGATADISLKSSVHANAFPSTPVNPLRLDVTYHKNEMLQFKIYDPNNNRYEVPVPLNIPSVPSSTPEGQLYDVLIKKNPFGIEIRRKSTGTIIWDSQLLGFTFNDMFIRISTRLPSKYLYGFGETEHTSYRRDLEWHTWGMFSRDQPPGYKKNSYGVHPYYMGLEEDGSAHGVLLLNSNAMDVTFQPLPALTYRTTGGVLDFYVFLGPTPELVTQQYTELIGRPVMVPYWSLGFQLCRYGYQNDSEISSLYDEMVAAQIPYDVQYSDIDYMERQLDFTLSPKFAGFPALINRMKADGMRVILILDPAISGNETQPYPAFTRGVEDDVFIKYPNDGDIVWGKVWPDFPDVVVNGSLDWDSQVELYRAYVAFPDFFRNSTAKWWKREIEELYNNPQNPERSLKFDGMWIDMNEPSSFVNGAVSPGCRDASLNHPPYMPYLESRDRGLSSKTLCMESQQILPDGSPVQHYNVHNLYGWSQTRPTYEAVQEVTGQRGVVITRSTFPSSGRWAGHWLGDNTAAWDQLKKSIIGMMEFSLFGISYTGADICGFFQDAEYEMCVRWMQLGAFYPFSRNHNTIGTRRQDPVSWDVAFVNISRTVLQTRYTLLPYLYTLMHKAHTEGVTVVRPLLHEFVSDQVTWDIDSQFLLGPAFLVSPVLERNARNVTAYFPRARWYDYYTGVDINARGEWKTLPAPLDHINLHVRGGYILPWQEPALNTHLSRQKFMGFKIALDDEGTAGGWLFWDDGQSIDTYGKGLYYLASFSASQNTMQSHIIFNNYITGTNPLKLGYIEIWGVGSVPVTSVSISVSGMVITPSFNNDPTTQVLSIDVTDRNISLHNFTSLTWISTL

[5] = biological target: T1, Ceramide glucosyltransferase; remark: listed apart in the source

Compound	IC50 [1]	IC50 (Beta-glucosidase)	IC50 [2]	IC50 [3]	IC50 [4]	IC50 (Maltase-glucoamylase)	IC50 [5]
OC[C@@H]1[C@@H](O)[C@H](O)[C@@H](O)CN1CCCCCCC12CC3CC(CC(C3)C1)C2	Not Active	10 nM	60 nM	–	–	–	–
OC[C@H]1[C@@H](O)[C@H](O)[C@@H](O)CN1CCCC/C=C\C12CC3CC(CC(C3)C1)C2	Not Active	8 nM	12000 nM	–	–	–	–
OC[C@H]1[C@@H](O)[C@H](O)[C@@H](O)CN1CCCCCCC12CC3CC(CC(C3)C1)C2	Not Active	20 nM	25000 nM	–	–	–	–
OC[C@@H]1[C@@H](O)[C@H](O)[C@@H](O)CN1CCCC(F)(F)COCc1ccc(-c2ccccc2)cc1	–	1 nM	300 nM	27000 nM	400 nM	9000 nM	60 nM
OC[C@H]1[C@@H](O)[C@H](O)[C@@H](O)CN1CCCCCOCc1cc2ccccc2c2ccccc12	Not Active	200 nM	600000 nM	–	–	–	–
OC[C@H]1[C@@H](O)[C@H](O)[C@@H](O)CN1CCCCCOCc1cccc(-c2ccccc2)c1	–	–	–	60000 nM	100000 nM	> 100000 nM	70 nM
OC[C@@H]1[C@@H](O)[C@H](O)[C@@H](O)CN1CCCC/C=C\C12CC3CC(CC(C3)C1)C2	Not Active	5 nM	500 nM	–	–	–	–
CC(C)=CCC/C(C)=C/CC/C(C)=C/CCOCCCCCN1C[C@H](O)[C@@H](O)[C@H](O)[C@H]1CO	Not Active	100 nM	2500 nM	–	–	–	–
OC[C@@H]1[C@@H](O)[C@H](O)[C@@H](O)CN1CCCCCOCc1cc2ccccc2c2ccccc12	Not Active	100 nM	10000 nM	–	–	–	–
C[C@H](OCCCCCN1C[C@H](O)[C@@H](O)[C@H](O)[C@H]1CO)c1ccc(-c2ccccc2)cc1	–	3 nM	400000 nM	9000 nM	250 nM	2500 nM	–
C[C@@H](OCCCCCN1C[C@H](O)[C@@H](O)[C@H](O)[C@H]1CO)c1ccc(-c2ccccc2)cc1	–	3 nM	300 nM	35000 nM	500 nM	4000 nM	–
OC[C@H]1[C@@H](O)[C@H](O)[C@@H](O)CN1CC(F)(F)CCCOCc1ccc(-c2ccccc2)cc1	–	–	–	> 100000 nM	> 100000 nM	> 100000 nM	20 nM
OC[C@@H]1[C@@H](O)[C@H](O)[C@@H](O)CN1CC(F)(F)CCCOCc1ccc(-c2ccccc2)cc1	–	10 nM	125 nM	> 100000 nM	35000 nM	> 100000 nM	1250 nM
